# Laboratory results: patent US20040087561A1, “Treatment of sexual dysfunction” (priority 2000, published 2004)
# Assays:
# Sprague Dawley male rats [1] = assay: Sexual behaviour of normal (sexually vigorous) male rats; assay type: in vivo, rat; details: Compound (1) 15 mg/kg or fluoxetine 20 mg/kg i.p., 1 h before test, vs vehicle
# Experimental: The potentially stimulatory effect of Compound (1) on male sexual behaviour has been tested on sexually vigorous rats. Sprague Dawley male rats (Charles River, UK) were kept, 4 rats per cage, in a reversed lighting regime (12:12 hours, lights off at 5.00 h), with free access to food and water. The rats were pre-selected by being presented with a receptive female at 4 days intervals, i.e. every third day (having 2 clear days between presentations) until completing 6-7 days of baseline determination. The animals showing consistently vigorous behaviour (ejaculatory latencies <300 s) were chosen for further experiments (n=24). Animals were randomised into three groups. All animals received all three treatments following a latin-square design. Treatments were administered once a week, with a baseline test in between treatments (4 days intervals between baseline and test day). Treatments were Compound (1) (15 mg/kg, dissolved in 50% 2-hydroxypropyl-β-cyclodextrin in saline), vehicle, or Fluoxetine (20 mg/kg dissolved in 100% DMSO). All treatments were administered i.p. in a 1 ml/kg volume, 1 h before tests.
# For all the sexual behaviour tests, the males were placed in an observation arena (50-60 cm diameter), starting 5 hours into the dark cycle and observed under red illumination. Three to 4 minutes after placing the male in the arena, a receptive female (ovariectomised, bearing a 7 mm Silastic implant of oestradiol benzoate) was introduced to the arena and the following parameters noted: Mount Latency: time (in seconds) taken between introduction of female and first mount. A maximum time of 15 minutes (900 seconds) was allowed, and the test terminated if no mounts were recorded within that time (FIG. 11), Intromission Latency: time (in seconds) taken between introduction of female and first intromission (FIG. 12), Number of Mounts: to reach ejaculation. When ejaculation was not reached, the number of mounts was not analyzed, Number of Intromissions: to reach ejaculation. When ejaculation was not reached, the number of intromissions was not analyzed (FIG. 13 is number of mounts+intromissions), Ejaculation Latency: time (in seconds) taken from first intromission to ejaculation. A maximum time of 30 minutes (1800 seconds) was given, and the test terminated if ejaculation was not achieved in that time (FIG. 14), and Refractory Period: time (in seconds) taken from ejaculation to the first mount of the next series of sexual activity. In those animals reaching ejaculation the test was terminated at the end of the refractory period, as indicated by the first mount of the next sexual cycle (FIG. 15).
# A one-way ANOVA followed by Dunnett's t test was used to compare treated vs vehicle groups each day of testing, for all the sexual behaviour parameters. (*P<0.05, **P<0.01; n=15-16).
# Sprague Dawley male rats [2] = assay: Sexual behaviour of sexually dysfunctional (fluoxetine-treated) male rats; assay type: in vivo, rat; details: fluoxetine 20 mg/kg i.p. 3 days (vs vehicle+vehicle); day 4 Compound (1) 15 mg/kg or yohimbine 2 mg/kg i.p. 1 h before test (vs fluoxetine+vehicle)
# Experimental: Sprague Dawley male rats (Charles River, UK) were kept, 4 rats per cage, in a reversed lighting regime (12:12 hours, lights off at 5.00 h), with free access to food and water. The rats were pre-selected by being presented with a receptive female at […], i.e. every third day (haying 2 clear days between presentations) until completing 6-7 trials of baseline determination. The animals showing consistently vigorous behaviour (ejaculatory latencies <300 s) were chosen for further experiments. Animals were treated for 3 consecutive days with either vehicle (water) or fluoxetine (20 mg/kg, i.p., in a 2 ml/kg dosing volume). On the fourth day, the animals treated with water received vehicle (veh+veh) and the animals treated with fluoxetine received one of the three following treatments: Compound (1) (15 mg/kg, dissolved in 50% 2-hydroxypropyl-β-cyclodextrin in saline), vehicle (cyclodextrine), or yohimbine (2 mg/kg dissolved in water). All treatments were administered i.p. in a 1 ml/kg volume, 1 h before tests.
# For all the sexual behaviour tests, the males were placed in an observation arena (50-60 cm diameter), starting 5 hours into the dark cycle and observed under red illumination. Three to 4 minutes after placing the male in the arena, a receptive female (ovariectomised, bearing a 7 mm Silastic implant of oestradiol benzoate) was introduced to the arena and the following parameters noted: Mount Latency: time (in seconds) taken between introduction of female and first mount. A maximum time of 15 minutes (900 seconds) was allowed, and the test terminated if no mounts were recorded within that time (FIG. 16), Ejaculation Latency: time (in seconds) taken from first intromission to ejaculation. A maximum time of 30 minutes (1800 seconds) was given, and the test terminated if ejaculation was not achieved in that time (FIG. 17), Percentage of males achieving ejaculation within 30 minutes was calculated (FIG. 18).
# A one-way ANOVA followed by Dunnett's t test was used to compare the fluoxetine+vehicle group and other groups for mount and ejaculatory latencies. Percentage of animals ejaculating was analysed using a Chi-square test followed by Fisher's test. (*: P<0.05, **: P<0.01, ***: P<0.001; n=15-19).
# [3] = system: ovariectomised female Sprague Dawley rats; assay: Inhibition of female rat sexual proceptivity by NMB and its antagonism; assay type: in vivo
# Experimental: Ovariectomised female rats (Sprague Dawley, obtained from Charles River, UK) were stereotaxically implanted (coordinates 0.89 mm behind Bregma, 1.3 mm lateral and 2.5 mm vertical) with stainless steel cannulae (6 mm long, O.D. 0.75 mm), held in place with dental cement. Animals were housed in groups of three and returned to a reversed lighting system of 12 h light:dark (lights off 5.00-17.00 h). Correct placement of the cannulae was assessed post-mortem. Rats were used for tests two weeks after ovariectomy (one week after cannulation). The experiments started at least 5 h into the dark period. Forty eight hours before tests, the animals were primed with 5 μg oestradiol benzoate (OB) (s.c, in corn oil) and adapted to the apparatus (in the absence of stimuli animals) for 10 min on 2 consecutive days prior testing. The 10 min test was carried out as previously described. The difference in the percentage of time spent investigating male minus female was calculated, out of the total time spent investigating stimuli.
# Progesterone (Prog, 0.5 mg/0.1 ml) was dissolved in corn oil and administered subcutaneously (s.c.), 4 h before test, to induce proceptive behaviour. Compound (1) (15 mg/kg, i.p.) was dissolved in 50% 2-hydroxypropyl-β-cyclodextrin in saline and administered 1 h before the i.c.v. administration. Neuromedin B was obtained from Bachem, UK. It was dissolved in isotonic saline and administered i.c.v. over a 30 sec period, with the aid of a pump set to deliver a flow of 10 μl/min, 10 min before tests. The dosing volume was 5 μl/rat. Each rat received a total amount of 100 ng.
# From the present study we can conclude that stimulation of BB1 receptors with an agonist results in inhibition of proceptive behaviour. This inhibitory effect may be prevented by the presence of an antagonist. e.g. Compound (1) In FIG. 5 the bars represent percentage of time spent investigating male, minus the percentage of time spent investigating the female stimuli+SEM, (n=8-12 per group). ***P<0.001 vs progesterone (One-way ANOVA followed by Dunnett's test).
# [4] = system: ovariectomised female Sprague Dawley rats; assay: Plasma sexual hormone levels (radioimmunoassay) in ovariectomised female rats; assay type: in vivo, rat; details: Compound (1) 3-10 mg/kg 1 h, progesterone 0.5 mg/0.1 ml s.c. 4 h before blood collection; vs vehicle
# Experimental: Ovariectomised adult female Sprague Dawley rats (180-200 g) were housed in groups of 6 in a reversed lighting system of 12 h light:dark (lights off 7.00-19.00 h). They were used for the experiments at least two weeks after ovariectomy. Forty eight hours before tests, the animals were primed with oestradiol benzoate (5 μg/0.1 ml in corn oil, s.c.). Progesterone (0.5 mg/0.1 ml, in corn oil, s.c.) was administered 4 h before blood collection, as a positive control. Compound (1) (3-10 mg/kg, i.p.) was administered in 50% 2-hydroxypropyl-β-cyclodextrin, 1 h prior to blood collection. Blood was collected from the trunk, after decapitation. It was immediately centrifuged (3500 r.p.m., 4° C., 5 min) and the plasmas frozen until assayed for hormonal content, using commercially available radioimmunoassay kits (^125I-labelled hormones) for oestradiol, progesterone, LH, FSH and prolactin.
# [5] = system: ovariectomised female Sprague Dawley rats; assay: Female rat sexual proceptivity (time investigating male vs female stimulus); assay type: in vivo; details: day 1; Compound (1) 15 mg/kg i.p. 1 h before; progesterone 0.5 mg/0.1 ml s.c. 4 h before; vs vehicle, P<0.01
# Experimental: Ovariectomised adult female Sprague Dawley rats (180-200 g, from Charles River) were housed in groups of 6 in a reversed lighting system of 12 h light:dark (lights off 7.00-19.00 h). Two weeks after ovariectomy they were used for sexual activity tests. The experiments started at least 5 h into the dark period.
# Tests were carried out in a circular arena of 90 cm diameter, surrounded by a 30 cm high wall. Two small cages with wire-mesh front (15×15 cm) are fixed into the wall such that the front of the cage is <> with the wall and the 2 cages are opposite each other. They contained two stimuli animals: an intact sexually experienced male and a receptive female (ovariectomised, primed with 5 μg oestradiol benzoate dissolved in corn oil and injected subcutaneously 48 hours before the test and with 0.5 mg of progesterone four hours before the test). Sexually naive test and control animals were used. Forty eight hours before the tests, both the test and control animals were primed with 5 μg oestradiol benzoate. For animals used as positive controls, progesterone (0.5 mg/0.1 ml) was dissolved in corn oil and administered subcutaneously (s.c.), 4 h before the test. Test and control animals were introduced one at a time for 10 minute periods into the arena. During the 10 min test, the time that the test or positive control animal spent investigating each stimulus animal was noted. The arena was thoroughly cleaned between animals. The position of the male/female stimuli boxes was randomised between animals, in order to avoid place preference. The difference in the percentage of time spent investigating the male minus the female stimuli was calculated, out of the total time spent investigating stimuli animals.
# Compound (1) was dissolved in 100% β-cyclodextrin and then diluted with saline to a final solution of 50% 2-hydroxypropyl-β-cyclodextrin. It was administered intraperitoneally (i.p.) at doses of 3 and 10 mg/kg, in a dosing volume of 1 ml/kg, 1 h before tests. Progesterone (0.5 mg/0.1 ml) was dissolved in corn oil and administered subcutaneously (s.c.), 4 h before test, as a positive control.
# Ovariectomised adult female Sprague Dawley rats (180-200 g) were housed in groups of 5 in a reversed lighting system of 12 h light:dark (lights off 5.00-17.00 h). They were used for the experiments at least two weeks after ovariectomy. Forty eight hours before tests, the animals were primed with oestradiol benzoate (5 μg/0.1 ml in corn oil, s.c.). On day 1, progesterone (0.5 mg/0.1 ml, in corn oil, s.c.) was administered to one of the groups 4 h before tests, as a positive control. Compound (1) (15 mg/kg, i.p.) was administered in 50% 2-hydroxypropyl-β-cyclodextrin, 1 h before tests. The test lasted 10 minutes and was carried out as described before. The difference in the percentage of time spent investigating the male minus the female stimuli was calculated, out of the total time spent investigating stimuli animals. Animals were submitted to a test on day 1 and on day 15. From day 2 to 14 the Compound (1) group received a daily injection of the compound (15 mg/kg, i.p.), while both the vehicle and the progesterone groups received an injection of vehicle. On day 15 the test took place again, as described for day 1.
# Ovariectomised female rats (Sprague Dawley, obtained from Charles River, UK) were stereotaxically implanted (coordinates 0.89 mm behind Bregma, 1.3 mm lateral and 2.5 mm vertical) with stainless steel cannulae (6 mm long, O.D. 0.75 mm), held in place with dental cement. Animals were housed in groups of three and returned to a reversed lighting system of 12 h light:dark (lights off 5.00-17.00 h). Correct placement of the cannulae was assessed post-mortem. Rats were used for tests two weeks after ovariectomy (one week after cannulation). The experiments started at least 5 h into the dark period. […]
compound,measurement,setting,value
CNCCC(Oc1ccc(C(F)(F)F)cc1)c1ccccc1 (stereo not shown) [fluoxetine],Ejaculation latency,Sprague Dawley male rats [1],also increased
same,Intromission latency,Sprague Dawley male rats [1],significantly increased
same,Mount latency,Sprague Dawley male rats [1],significantly increased
same,Refractory period,Sprague Dawley male rats [1],also increased
same,number of mounts and intromissions required to achieve ejaculation,Sprague Dawley male rats [1],No changes
same,Ejaculation latency,Sprague Dawley male rats [2],significantly increased
same,Mount latency,Sprague Dawley male rats [2],significantly increased
same,percentage of animals ejaculating (within 30 minutes),Sprague Dawley male rats [2],significantly lower
neuromedin B [NMB],proceptivity in progesterone-treated rats,[3]; NMB 100 ng i.c.v. 10 min before test,significantly reduced proceptivity
"CC(=O)[C@H]1CC[C@H]2[C@@H]3CCC4=CC(=O)CC[C@]4(C)[C@H]3CC[C@]12C [progesterone, reference compound]",LH plasma levels,[4],significant decrease
same,progesterone plasma levels,[4],significant increase
same,percentage of time spent investigating the male stimulus,"[3]; progesterone 0.5 mg/0.1 ml s.c. 4 h before test, vs vehicle group",increased the percentage of time spent investigating the male stimulus
same,"effect on proceptivity, day 1",[5],stimulatory effect on proceptivity
